Reference: patent publication US8722678B2 (priority 2010, dated 2014)
Read-outs that look alike come from different tables or passages of the source.

How the values were obtained:
Plasmopara viticola = conditions: in vivo
Phytophthora infestans [1] = experiment: whole plant or invertebrate; type: in vivo; conditions: for Test B rating (100 = 100% disease control, 0 = no disease control relative to the controls): in vivo
Phytophthora infestans [2] = type: in vivo
[3] = tomato seedlings, sprayed to run-off 17 h after inoculation, application rate not given for unstarred values (40 ppm suspension mentioned)

| Molecule | Test A rating (100 = 100% disease control, 0 = no disease control relative to the controls) (Plasmopara viticola) [%] | Test B rating (100 = 100% disease control, 0 = no disease control relative to the controls) (Phytophthora infestans [1]) [%] | Test C rating (100 = 100% disease control, 0 = no disease control relative to the controls) (Phytophthora infestans [2]; in vivo) [%] | Test C rating (100 = 100% disease control, 0 = no disease control relative to the controls) (Phytophthora infestans [2]; [3]) [%] | pest or weed control at 200 ppm (Phytophthora infestans [1]; Phytophthora infestans, in Solanum lycopersicum, read-out: Test B rating (100 = 100% disease control, 0 = no disease control relative to the controls)) [%] |
| --- | --- | --- | --- | --- | --- |
| 1-[4-[4-[(hydroxyimino)phenylmethyl]-2-thiazolyl]-1-piperidinyl-2-[5-methyl-3-(trifluoromethyl)-1H-pyrazol-1-yl]ethanone [Compound 15] | 55 | 100 |  |  |  |
| 1-[4-[4-[(hydroxyimino)phenylmethyl]-2-thiazolyl]-1-piperidinyl-2-[5-methyl-3-(trifluoromethyl)-1H-pyrazol-1-yl]ethanone [Compound 16] | 0 | 89 | 0 |  |  |
| Cc1cc(C(F)(F)F)nn1CC(=O)N1CCC(c2nc(C=NO)cs2)CC1 [Compound 8, 4-[4-[(hydroxyimino)methyl]-2-thiazolyl]-1-[[5-methyl-3-(trifluoromethyl)-1H-pyrazol-1-yl]acetyl]piperidine] | 99 |  |  | 97 |  |
| CC(=NO)c1csc(C2CCN(C(=O)Cn3nc(C(F)(F)F)cc3C)CC2)n1 [Compound 10, 1-[4-[4-[1-(hydroxyimino)ethyl)-2-thiazolyl]-1-piperidinyl]-2-[5-methyl-3-(trifluoromethyl)-1H-pyrazol-1-yl]ethanone] | 71 |  |  |  |  |
| Cc1cc(C(F)(F)F)nn1CC(=O)N1CCC(c2nc(C(C=Cc3c(F)cccc3F)=NO)cs2)CC1 [Compound 11, 3-(2,6-difluorophenyl)-1-[2-[1-[2-[5-methyl-3-(trifluoromethyl)-1H-pyrazol-1-yl]acetyl]-4-piperidinyl]-4-thiazolyl]-2-propen-1-one 1-oxime] | 100 |  |  | 98 |  |
| Cc1cc(C(F)(F)F)nn1CC(=O)N1CCC(c2nc(C(CC(O[Si](C)(C)C(C)(C)C)c3c(F)cccc3F)=NO)cs2)CC1 (stereo not drawn) [Compound 12, 3-(2,6-difluorophenyl)-3-[[(1,1-dimethylethyl)dimethylsilyl]oxy]-1-[2-[1-[2-[5-methyl-3-(trifluoromethyl)-1H-pyrazol-1-yl]acetyl]-4-piperidinyl]-4-thiazolyl]-1-propanone 1-oxime] | 0 |  |  |  | 40 |
| Cc1cc(C(F)(F)F)nn1CC(=O)N1CCC(c2nc(C(CC(O)c3c(F)cccc3F)=NO)cs2)CC1 (stereo not drawn) [Compound 13, 3-(2,6-difluorophenyl)-3-hydroxy-1-[2-[1-[2-[5-methyl-3-(trifluoromethyl)-1H-pyrazol-1-yl]acetyl]-4-piperidinyl]-4-thiazolyl]-1-propanone 1-oxime] | 93 |  |  | 97 |  |
| CCOC(=O)/C(=N\O)c1csc(C2CCN(C(=O)Cn3nc(C(F)(F)F)cc3C)CC2)n1 [Compound 14] | 0 |  |  | 9 |  |
| CON=C(C=Cc1c(F)cccc1F)c1csc(C2CCN(C(=O)Cn3nc(C(F)(F)F)cc3C)CC2)n1 [Compound 19, 3-(2,6-difluorophenyl)-1-[2-[1-[2-[5-methyl-3-(trifluoromethyl)-1H-pyrazol-1-yl]acetyl]-4-piperidinyl]-4-thiazolyl]-2-propen-1-one 1-(O-methyloxime)] | 83 |  |  |  |  |
| Cc1cc(C(F)(F)F)nn1CC(=O)N1CCC(c2nc(C(CCc3c(F)cccc3F)=NO)cs2)CC1 [Compound 21, 3-(2,6-difluorophenyl)-1-[2-[1-[2-[5-methyl-3-(trifluoromethyl)-1H-pyrazol-1-yl]acetyl]-4-piperidinyl]-4-thiazolyl]-1-propanone 1-oxime] | 57 |  |  |  |  |
| Cc1cc(C(F)(F)F)nn1CC(=O)N1CCC(c2nc(C=NOC(C)c3ccccc3)cs2)CC1 (stereo not drawn) [Compound 22, 2-[1-[2-[5-methyl-3-(trifluoromethyl)-1H-pyrazol-1-yl]acetyl]-4-piperidinyl]-4-thiazolecarboxaldehyde 4-[O-(1-phenylethyl)oxime]] | 97 |  |  |  |  |
| CC(=O)ON=C(C=Cc1c(F)cccc1F)c1csc(C2CCN(C(=O)Cn3nc(C(F)(F)F)cc3C)CC2)n1 [Compound 23, 3-(2,6-difluorophenyl)-1-[2-[1-[2-[5-methyl-3-(trifluoromethyl)-1H-pyrazol-1-yl]acetyl]-4-piperidinyl]-4-thiazolyl]-2-propen-1-one 1-(O-acetyloxime)] | 99 |  |  | 99 |  |
